Test results: patent US5208263A, “Anti-androgen compounds” (Arch Development Corporation, priority 1989, dated 1993)
Where two headings read alike, the source gives them in different places.

Assays:
[1] = molecular target: T1, androgen receptor of rat ventral prostate (Rattus norvegicus, UniProt P15207); assay: Competition with [3H]R1881 for androgen receptor binding, cell-free assay (Table 1)
T1 construct: androgen receptors isolated, as described in Chang, C., et al., J. Steroid Biochem., 27:123 (1987), from rat ventral prostate; from tissue; host or cells: rat ventral prostate
T1 sequence (P15207 1-902): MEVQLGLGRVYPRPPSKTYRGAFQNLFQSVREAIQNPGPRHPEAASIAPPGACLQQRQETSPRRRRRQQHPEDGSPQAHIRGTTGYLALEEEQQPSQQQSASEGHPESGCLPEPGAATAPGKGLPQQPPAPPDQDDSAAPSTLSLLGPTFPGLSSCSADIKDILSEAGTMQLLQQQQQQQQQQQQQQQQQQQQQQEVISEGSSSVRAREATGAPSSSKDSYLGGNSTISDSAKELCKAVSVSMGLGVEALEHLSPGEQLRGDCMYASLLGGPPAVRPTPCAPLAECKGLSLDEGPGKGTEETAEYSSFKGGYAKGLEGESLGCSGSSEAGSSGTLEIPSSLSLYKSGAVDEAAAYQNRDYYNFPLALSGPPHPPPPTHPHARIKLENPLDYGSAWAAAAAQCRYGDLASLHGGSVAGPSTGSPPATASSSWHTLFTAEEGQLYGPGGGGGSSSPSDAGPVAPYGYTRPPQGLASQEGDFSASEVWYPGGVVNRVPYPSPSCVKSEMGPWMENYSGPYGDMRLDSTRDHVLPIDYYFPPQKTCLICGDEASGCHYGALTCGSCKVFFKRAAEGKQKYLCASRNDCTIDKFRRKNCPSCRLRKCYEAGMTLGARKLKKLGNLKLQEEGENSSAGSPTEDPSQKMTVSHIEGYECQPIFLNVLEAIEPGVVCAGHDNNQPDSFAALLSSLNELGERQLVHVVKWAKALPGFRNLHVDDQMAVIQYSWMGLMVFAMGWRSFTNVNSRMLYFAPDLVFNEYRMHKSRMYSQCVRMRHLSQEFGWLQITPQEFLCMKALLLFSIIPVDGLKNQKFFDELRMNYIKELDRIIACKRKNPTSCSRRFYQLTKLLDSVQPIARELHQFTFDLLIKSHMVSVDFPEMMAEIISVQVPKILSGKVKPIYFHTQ

[2] = system: ventral prostate; details: rats; Chang et al. 1987; cited from earlier work
[3] = system: androgen receptors; details: Chang et al. 1987; cited from earlier work
[4] = in parentheses, relative to R1881 = 100.00, cell-free, rat ventral prostate

1-[2-(9(or 10)-methyl-9,10-dihydrophenanthryl)]-1-ethanol [Compound 11]
Relative receptor binding activity (RBA) [1]: 0.29
IC50 ([1]; read-out: IC50 (concentration of test compound needed to show 50% inhibition of [3H]R1881 binding), [3H]R1881 (17a-methyltrienolone) binding, androgen receptor of rat ventral prostate, cell-free): 6.8 µM

O=C1CCc2c1ccc1c2CCc2ccccc2-1 (racemic) [Compound 6, 6,7,16,17-Tetrahydro-15H-cyclopenta[a]phenanthren-17-one]
IC50 [1]: 17.8 µM
Relative receptor binding activity (RBA) [1]: 0.11

c1cc2c(c3c1CCCC3)CCCC2 [1,2,3,4,5,6,7,8-octahydro-phenanthrene, reference compound]
IC50 [1]: 200 µM
Relative receptor binding activity (RBA) [1, 4]: 0.01

c1ccc2c(c1)CCc1ccccc1-2 [9,10-dihydrophenanthrene, reference compound]
inhibition of growth of the ventral prostate [2]: inhibits the growth of the ventral prostate in rats
IC50 [1]: 10 µM
Relative receptor binding activity (RBA) [1, 4]: 0.20
interaction with androgen receptors in cell-free systems [3]: interacts with androgen receptors in cell-free systems

c1ccc2c(c1)CCc1ccccc1C2 [10,11-dihydro-5H-dibenzo-[a,d]cycloheptene, reference compound]
IC50 [1]: 60 µM
Relative receptor binding activity (RBA) [1, 4]: 0.03

OC1CCc2c1ccc1c2CCc2ccccc2-1 (stereo not shown) [Compound 7, 6,7,16,17-tetrahydro-15H-cyclo-penta[a]phen-anthren-17-ol]
IC50 [1]: 4.2 µM
Relative receptor binding activity (RBA) [1]: 0.48

CC(O)c1ccc2c(c1)CCc1ccccc1-2 (stereo not shown) [Compound 9, 1-[2-(9,10-Dihydrophenanthryl)]-1-ethanol]
IC50 [1]: 2.6 µM
Relative receptor binding activity (RBA) [1, 4]: 0.77

Oc1ccc2c(c1)CCc1ccccc1-2 [Compound 13, 2-Hydroxy-9,10-dihydrophenanthrene]
IC50 [1]: 7.9 µM
Relative receptor binding activity (RBA) [1, 4]: 0.25

O=C1CCc2c(ccc3c2CCc2c(O)cccc2-3)C1 [Compound 22, 4'-oxo-7,8-cyclohexeno-9,10-dihydrophenanthren-1-ol]
IC50 [1]: 1.3 µM
Relative receptor binding activity (RBA) [1, 4]: 1.53

O=C1CCc2c(ccc3c2ccc2c(O)cccc23)C1 [Compound 25, 4'-oxo-7,8-cyclohexenophenanthren-1-ol]
IC50 [1]: > 100 µM
Relative receptor binding activity (RBA) [1]: < 0.02

OCCc1ccc2c(c1)CCc1ccccc1-2 [Compound 26, 2-(2'-hydroxyethyl)-9,10-dihydrophenanthrene]
IC50 [1]: 3.6 µM
Relative receptor binding activity (RBA) [1, 4]: 0.56

OCC(O)c1ccc2c(c1)CCc1ccccc1-2 (stereo not shown) [Compound 27, 2-(2',3'-dihydroxyethyl)-9,10-dihydrophenanthrene]
IC50 [1]: 47.9 µM
Relative receptor binding activity (RBA) [1, 4]: 0.04

c1ccc2c(c1)ccc1ccccc12 [phenanthrene, reference compound]
IC50 [1]: 800 µM
Relative receptor binding activity (RBA) [1, 4]: 0.0025
